Measurements from US8791099B2, “Transition metal complexes of corroles for preventing cardiovascular diseases or disorders” (Technion Research and Development Foundation Ltd., priority 2007, dated 2014).
Marks after values point to notes of the source that are not given here.

Experiments:
[1] = tested on: Apolipoprotein E deficient mice (E^0 mice); experiment: Serum total cholesterol in E^0 mice; format: in vivo; conditions: drinking water 0.04 mM (0.2 mg per mouse per day), 10 weeks
Excerpt: a) For atherosclerosis evaluation: At an age of about 10 weeks, 24 E^0 mice were randomly divided into 4 groups of 6 mice each.
The sacrificed mice were also examined with regard to other factors relevant to the development of atherosclerosis.

[2] = Oxidation of tetramethylene sulfoxide to sulfolane by peroxynitrite
Method: The sulfolane was extracted into diethyl ether after 10 min of stirring and quantified by GC analysis. The same experiment was done at pH 12.7, with a reaction time of 4 hr.
These particular molecules were specifically chosen because they represent targets of hydroxyl radical, nitrogen dioxide, and of oxygen transfer reagents. In addition, their reaction products are easily identified and quantified by established methods.

HDL = experiment: Oxidation of HDL by copper sulfate; format: biochemical, human; conditions: for Effect on conjugated dienes formation in HDL: 2.5 μM corrole, 5 μM CuSO4
Method: (§1) Oxidation was initiated by addition of a freshly prepared CuSO4 solution (5 μM) and incubation at 37° C. under air in a shaking water bath was continued for 2 h (LDL) or 5 h (HDL). Lipoprotein oxidation was determined by measuring the amount of TBARS (Aviram et al. 2001).
(§2) Conjugated dienes formation was continuously monitored for 165 min while TBARS and lipid peroxides (Aviram et al. 2001) were measured after 15, 30, 45, 60, 75, 90, 120 and 165 minutes.
The results for the copper-induced oxidation of HDL were very similar to the results obtained for LDL. […] It should be mentioned that the damage measured for HDL is lower than that measured for LDL, due to the lower lipid content of HDL.

[3] = Decomposition of peroxynitrite, comparison with punicalagin; conditions: for Minimal concentration required for reducing the half lifetime of peroxynitrite by 50%: calculated from rate constants
Method: For initial assessment of possible superiority of the metallocorroles relative to natural antioxidants, we have determined the effect of excess (45-135 μM) punicalagin—the active polyphenolic hydrolysable tannin ingredient of pomegranate juice (Tzulker et al., 2007), on decomposition of peroxynitrite (40 μM).

LDL = experiment: Oxidation of LDL by copper sulfate; format: biochemical, human; conditions: for Increased damage (TBARS): corrole 0.5 μM
Method: as §1, §2
The more commonly used copper-induced LDL oxidation protocol was also applied. […] This may be appreciated from FIGS. 3A-3C, which show the time course of stepwise formation of conjugated dienes, hydroperoxides, and aldehydes (2.5 μM of metal corrole). […] The total amount of hydroperoxides rapidly reached a maximum at 45 min (due to its subsequent transformation to the final aldehyde products) and the total concentration of aldehydes was increased by a factor of 3 relative to the control experiment. […] Similar results were obtained for HDL oxidation.
The dependence of LDL oxidation on the corrole concentration was examined by analyses performed 2 hours after oxidation initiation by the copper ion (FIG. 4A).

[4] = tested on: mouse peritoneal macrophages (MPM); experiment: Cholesterol efflux from MPM of treated E^0 mice; conditions: drinking water 0.04 mM (8 mg/Kg/day), 14 weeks
Method: Mouse peritoneal macrophages were incubated with [^3H]-labeled cholesterol for 1 h at 37° C. followed by cell wash in ice-cold PBS (3×) and further incubation in the absence or presence of 100 μg of human HDL protein/ml for 3 h at 37° C. Cellular and medium [^3H]-labels were quantitated and HDL-mediated cholesterol efflux was calculated as the ratio of [^3H]-label in the medium/[^3H]-label in the medium+[^3H]-label in cells.

[5] = tested on: mouse peritoneal macrophages (MPM); experiment: Cholesterol synthesis by MPM of treated E^0 mice; conditions: drinking water 0.04 mM (8 mg/Kg/day), 14 weeks
Method: Cellular cholesterol biosynthesis was assayed after incubation of macrophages (3×10^6 well^−1) overnight with DMEM containing 2% BSA followed by additional 3 h of incubation at 37° C. with [^3H]-acetate (3.3 μCi/ml). Cellular lipids were extracted with hexane:isopropanol (3:2, v:v), and the upper phase was dried under nitrogen. The lipids were then separated by TLC using an eluent of hexane:ether:acetic acid (130:30:1.5, v:v:v). Unesterified cholesterol spots were visualized by iodine vapor (by using standard for identification) and counted with β-counter.

J-774 macrophages = experiment: Cholesterol efflux from J-774 macrophages by serum of treated E^0 mice; conditions: drinking water 0.04 mM (8 mg/Kg/day), 14 weeks
Method: J-774 macrophages were incubated with [^3H]-labeled cholesterol for 1.5 h at 37° C. followed by cell wash in ice-cold PBS (3×) and further incubation in the presence of 15 μL mice serum for 3 h at 37° C. Cellular and medium [^3H]-labels were quantitated and HDL-mediated cholesterol efflux was calculated as the ratio of [^3H]-label in the medium/[^3H]-label in the medium+[^3H]-label in cells.

[6] = pH 7.4, T=25°C, yield relative to [PN]0, PN alone 3.14%
[7] = pH 12.7, yield relative to [PN]0, PN alone 83%

Row | Compound | Total serum cholesterol lower than in the control group [1] | Yield of sulfolane from tetramethylenesulfoxide [2, 6] | Yield of sulfolane from tetramethylenesulfoxide [2, 7] | Effect on conjugated dienes formation in HDL (HDL) | Increase of TBARS formation in HDL (HDL; all concentrations measured, 5 hr after CuSO4) | Times more effective than punicalagin in peroxynitrite decomposition [3] | Minimal concentration required for reducing the half lifetime of peroxynitrite by 50% [3] | Factor of increase of total concentration of aldehydes relative to control (LDL; 2.5 μM corrole, 5 μM CuSO4) | Time at which total hydroperoxides reached a maximum (LDL; 2.5 μM corrole, 5 μM CuSO4) | Delay in formation of conjugated dienes (LDL; 2.5 μM corrole, 5 μM CuSO4, control 30 minutes) | Increased damage (TBARS) (LDL; 2 hours after CuSO4) | Decrease in cholesterol efflux from the E^0 MPM [4] | Reduction of cholesterol synthesis by MPMs [5] | Effect on TBARS formation in HDL (HDL; corrole 2.5 μM and higher, 5 hr after CuSO4) | Increase in serum-mediated cholesterol efflux from J-774 macrophages (J-774 macrophages) | Aldehydes formation after 24 hours (LDL; 2.5 μM corrole, 5 μM CuSO4) | Damage by all three criteria (conjugated dienes, hydroperoxides, aldehydes) (LDL; 2.5 μM corrole, 5 μM CuSO4) | Fold by which the manganese porphyrin concentration for 100% inhibition exceeds the 1-Fe concentration for full inhibition (LDL; 100 μM vs 2.5 μM) | Concentration giving full inhibition of LDL oxidation (LDL; copper-induced LDL oxidation) | Effect on TBARS formation (LDL; corrole 2.5 μM and higher, 2 hours after CuSO4)
1 | O=S(=O)(O)c1cc2[n]3c1C(c1c(F)c(F)c(F)c(F)c1F)=C1C=CC4=[N+]1[Mn-]31[n]3c(cc(S(=O)(=O)O)c3-2)C(c2c(F)c(F)c(F)c(F)c2F)=c2ccc([n]21)=C4c1c(F)c(F)c(F)c(F)c1F (stereo not drawn) [1-Mn, 5,10,15-tris(pentafluorophenyl)-2,17-bis(sulfonic acid)-corrolato manganese(III)] | 26% | 0.18% | 0.6%^(b) | shortened the delay time | about 2 folds | 100 times | 2.5 mol % | 3 | 45 min | 15 min | about 150% | – | – | – | – | – | – | – | – | –
2 | O=S(=O)(O)c1cc2[n]3c1C(c1c(F)c(F)c(F)c(F)c1F)=C1C=CC4=[N+]1[Fe-]31[n]3c(cc(S(=O)(=O)O)c3-2)C(c2c(F)c(F)c(F)c(F)c2F)=c2ccc([n]21)=C4c1c(F)c(F)c(F)c(F)c1F (stereo not drawn) [1-Fe, 5,10,15-tris(pentafluorophenyl)-2,17-bis(sulfonic acid)-corrolato iron(III)] | 40% | 0.1%^ | 0.4%^(b) | completely eliminated their formation | – | 5000 times | 0.05 mol % | – | – | – | minor increase in TBARS | 20% | 76% | protective effect | 7% | no aldehydes were formed | practically no damage | 40 fold | 2.5 µM | complete inhibition
